≈ marks a conversion by molar mass, not a printed value.
How the values were obtained:
[1] = test system: Pseudomonas aeruginosa; assay: Myeloperoxidase system with amino acids in the presence of blood (Example 9); assay type: cell-based; conditions: 60 minutes, MPO 25 μg/mL, GO 8.3 U/mL, L-valine/glycine 2.5 μmol/mL each, beta alanine 5 mM
Method: (§1) The effect of two way combinations of amino acids glycine and valine, and individually beta alanine, as potential enhancing agents for MPO microbicidal action against Pseudomonas aeruginosa, Staphylococcus aureus and Candida albicans, in the presence of blood, was determined following the procedure of Example 2. Each organism was tested against a single low concentration of MPO (25 μg/mL or 9.4 U/mL) and glucose oxidase (8.3 U/mL). The two amino acid activators were each added at a final concentration of 2.5 μmol/mL and the individual amino acid, beta alanine, was tested at a single concentration of 5 μmol/mL. The effect of no amino acid containing formulations on the myeloperoxidase antimicrobial activity against these organisms was tested for comparison.

[2] = test system: Candida albicans; assay: as above; assay type: cell-based; conditions: MPO 25 μg/mL, GO 8.3 U/mL, L-valine/glycine 2.5 μmol/mL each, beta alanine 5 μmol/mL
Method: as §1

[3] = test system: Staphylococcus aureus; assay: Control: microbicidal activity of the amino acid or analogue alone (no glucose, MPO, glucose oxidase) in the presence of blood; assay type: cell-based; conditions: amino acid alone 5 mM, MPO 0, GO 0, no glucose, blood, without replication
Excerpt: As a control to determine the microbicidal activity of the amino acids alone, the foregoing procedure was followed without replication, except in the absence of glucose, MPO, and glucose oxidase.

[4] = test system: Bacillus subtilis spores; assay: Myeloperoxidase system with beta alanine and L-alanine against spores in the presence of blood; assay type: cell-based; conditions: 2 hours, MPO 25 μg/mL (9.4 U/mL), GO 8.3 U/mL
Method: The effect of a two-way combination of beta alanine and L-alanine, as potential enhancing agents, for MPO microbicidal action against Bacillus subtilis spores in the presence of blood, was determined following the procedure of Example 2. However, in this case each test contained a single low concentration of MPO (25 μg/mL or 9.4 U/mL) and glucose oxidase (8.3 U/mL). […] The effect of both L-alanine and beta alanine alone on the myeloperoxidase antimicrobial activity against Bacillus subtilis spores was tested for comparison.
The nature of the relationship between beta alanine and L-alanine was examined following the synergy determination method described above.

[5] = test system: Staphylococcus aureus; assay: Microbicidal activity of the myeloperoxidase system (p-MPO, glucose oxidase, glucose) with amino acids in the presence of blood, CFU plate counts; synergy determination from these CFU; assay type: cell-based; conditions: for Average Viability CFU/ml 50 min / Log Reduction 50 min: single amino acid 2.5 mM, MPO 4.7 U/ml, GO 4.2 U/ml
Outline: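 Microbicidal activity of the MPO–glucose oxidase–glucose system against S. aureus with amino acids was assessed in 3% whole blood. Reactions of 1 mL were run at room temperature or 37° C and stopped with catalase. Surviving CFU were counted on trypticase soy agar. For each pair, Actual CFU was divided by Predicted CFU and multiplied by 100. This value was compared with variability-based thresholds to classify synergism, antagonism or additivity.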

[6] = test system: P. aeruginosa; assay: MIC, modified CLSI broth microdilution; assay type: cell-based; conditions: Pseudomonas aeruginosa, 53 clinical isolates
Method: (§5) Modifications were made to the standard broth microdilution method to accommodate the rapid in vitro activity of the Enhanced MPO Solution as described below. Each antimicrobial agent and Concentrate solution was diluted in double strength cation-adjusted Mueller-Hinton Broth (CAMHB) and dispensed in mircrodilution trays. All β-hemolytic streptococci were tested in double strength CAMHB supplemented with 5% lysed horse blood. Isolates were prepared by suspending several colonies (four to six) from an overnight culture on Trypticase Soy Agar (TSA) with 5% sheep blood into sterile saline and the density adjusted to a 0.5 McFarland standard (˜10^8 CFU/ml). Standardized bacterial suspensions were further diluted in double strength Diluent solution so that approximately 5×10^5 CFU/ml was mixed with serial drug dilutions. […] The microdilution trays were incubated in ambient air at 35° C. for 18 to 24 h.

[7] = test system: Aeromonas hydrophilia; assay: MIC, modified CLSI broth microdilution; assay type: cell-based; conditions: 5 clinical isolates, range for all strains tested
Method: as §5

[8] = test system: Acinetobacter species; assay: MIC, modified CLSI broth microdilution; assay type: cell-based; conditions: Acintobacter spp., 29 clinical isolates
Excerpt: (§6) All clinical isolates were obtained from the culture collection of Eurofins Medinet Anti-Infective Services (Herndon, Va.), and represent diverse geographical regions. […] Escherichia coli ATCC 25922, Staphylococcus aureus ATCC 25923, S. aureus ATCC 29213, Pseudomonas aeruginosa ATCC 27853, and Enterococcus faecalis ATCC 29212 were used as quality control strains for the Enhanced MPO Solution and comparator agents to validate the modified Clinical and Laboratory Standards Institute (CLSI, formally NCCLS) broth microdilution method.
(§7) Modifications were made to the standard broth microdilution method to accommodate the rapid in vitro activity of the Enhanced MPO Solution as described below. Each antimicrobial agent and Concentrate solution was diluted in double strength cation-adjusted Mueller-Hinton Broth (CAMHB) and dispensed in mircrodilution trays. All β-hemolytic streptococci were tested in double strength CAMHB supplemented with 5% lysed horse blood. Isolates were prepared by suspending several colonies (four to six) from an overnight culture on Trypticase Soy Agar (TSA) with 5% sheep blood into sterile saline and the density adjusted to a 0.5 McFarland standard (˜10^8 CFU/ml). Standardized bacterial suspensions were further diluted in double strength Diluent solution so that approximately 5×10^5 CFU/ml was mixed with serial drug dilutions. […]

[9] = test system: Klebsiella pneumoniae; assay: MIC, modified CLSI broth microdilution; assay type: cell-based; conditions: 31 clinical isolates
Excerpt: as §6, §7

[10] = test system: Pasteurella multocida; assay: MIC, modified CLSI broth microdilution; assay type: cell-based; conditions: 5 clinical isolates, range for all strains tested
Method: as §5

[11] = test system: Enterobacter cloacae; assay: MIC, modified CLSI broth microdilution; assay type: cell-based; conditions: 21 clinical isolates
Excerpt: as §6, §7

[12] = test system: E. coli; assay: MIC, modified CLSI broth microdilution; assay type: cell-based, Escherichia coli
Excerpt: (§2) All clinical isolates were obtained from the culture collection of Eurofins Medinet Anti-Infective Services (Herndon, Va.), and represent diverse geographical regions. They were originally derived from clinical specimens and identified using standard microbiological methods (see Table 33 below for details). Escherichia coli ATCC 25922, Staphylococcus aureus ATCC 25923, S. aureus ATCC 29213, Pseudomonas aeruginosa ATCC 27853, and Enterococcus faecalis ATCC 29212 were used as quality control strains for the Enhanced MPO Solution and comparator agents to validate the modified Clinical and Laboratory Standards Institute (CLSI, formally NCCLS) broth microdilution method.
(§3) Modifications were made to the standard broth microdilution method to accommodate the rapid in vitro activity of the Enhanced MPO Solution as described below. Each antimicrobial agent and Concentrate solution was diluted in double strength cation-adjusted Mueller-Hinton Broth (CAMHB) and dispensed in mircrodilution trays. All β-hemolytic streptococci were tested in double strength CAMHB supplemented with 5% lysed horse blood. Isolates were prepared by suspending several colonies (four to six) from an overnight culture on Trypticase Soy Agar (TSA) with 5% sheep blood into sterile saline and the density adjusted to a 0.5 McFarland standard (˜10^8 CFU/ml). Standardized bacterial suspensions were further diluted in double strength Diluent solution so that approximately 5×10^5 CFU/ml was mixed with serial drug dilutions. The addition of Diluent solution to the Concentrate solution activates the enzyme system, which in turn exerts its rapid mode of action. The microdilution trays were incubated in ambient air at 35° C. for 18 to 24 h.
(§4) MIC ranges were established for the Enhanced MPO Solution by testing over 20 replicates of one lot of the Enhanced MPO Solution against S. aureus ATCC 29213 and E. coli ATCC 25922. Quality control parameters were then determined for the Enhanced MPO Solution by testing three lots of the Concentrate solution used for preparation of the final Enhanced MPO Solution formulation. Testing was performed in duplicate against S. aureus ATCC 29213 and E. coli ATCC 25922. The effects of modifying the standard broth microdilution test were also assessed with antibiotics with known quality control limits to validate the CLSI broth microdilution method.

[13] = test system: Citrobacter freundii; assay: MIC, modified CLSI broth microdilution; assay type: cell-based; conditions: 20 clinical isolates
Excerpt: as §6, §7

[14] = test system: Proteus mirabilis; assay: MIC, modified CLSI broth microdilution; assay type: cell-based; conditions: 24 clinical isolates
Excerpt: as §6, §7

[15] = test system: S. agalactiae; assay: MIC, modified CLSI broth microdilution (CAMHB with 5% lysed horse blood); assay type: cell-based; conditions: Streptococcus agalactiae, 34 clinical isolates
Method: as §5

[16] = test system: S. epidermidis; assay: MIC, modified CLSI broth microdilution; assay type: cell-based, Staphylococcus epidermidis
Method: as §5

[17] = test system: streptococci groups C, F, and G; assay: MIC, modified CLSI broth microdilution (CAMHB with 5% lysed horse blood); assay type: cell-based, Streptococcus Group C, Group F, Group G; conditions: for MIC Range: range for all strains tested
Method: as §5

[18] = test system: E. faecium; assay: MIC, modified CLSI broth microdilution; assay type: cell-based; conditions: Enterococcus faecium, 22 clinical isolates
Method: as §5

[19] = test system: E. faecalis; assay: MIC, modified CLSI broth microdilution; assay type: cell-based, Enterococcus faecalis
Excerpt: as §2
as §3, with “The addition of Diluent solution to the Concentrate solution activates the enzyme system, which in turn exerts its rapid mode of action. The microdilution trays were incubated in ambient air at 35° C. for 18 to 24 h.” left out
as §4, with “Testing was performed in duplicate against S. aureus ATCC 29213 and E. coli ATCC 25922.” left out

[20] = test system: S. aureus; assay: MIC, modified CLSI broth microdilution; assay type: cell-based, Staphylococcus aureus
Excerpt: as §2, §3, §4

[21] = test system: S. pyogenes; assay: MIC, modified CLSI broth microdilution (CAMHB with 5% lysed horse blood); assay type: cell-based; conditions: Streptococcus pyogenes, 33 clinical isolates
Method: as §5

[22] = MPO 100 μg/mL, AA 20 mM, 30 min
[23] = MPO 100 μg/mL, AA 20 mM, 60 min
[24] = Table 4, amino acid 5 mM (none: 0 mM), MPO 38 U/ml, GO 33.3 U/ml, blood
[25] = Table 14, in the presence of blood, 50 min
[26] = Escherichia coli, 52 clinical isolates
[27] = Staphylococcus epidermidis, 31 clinical isolates
[28] = Streptococcus Group G, 18 clinical isolates
[29] = Enterococcus faecalis, 33 clinical isolates
[30] = Staphylococcus aureus, 109 clinical isolates
[31] = Table 2, amino acid 5 mM (none: 0 mM), MPO 38 U/ml, GO 33.3 U/ml, blood
[32] = Table 10, in the presence of blood, 50 min
[33] = Table 13, in the presence of blood, 50 min

NCCC(=O)O [Beta alanine]
enhancing effect over the MPO system without amino acids [1]: 4.6 logs
improvement in microbicidal activity over the MPO system without amino acids [2]: 1.9 logs
Average Viability CFU/ml 60 min [3]: 25500000 CFU/ml
Log Reduction 60 min [3]: 0.0
CFU survivors [4]: 3100000 CFU
Log 10 (CFU + 1) Survivors ([5]; MPO 25 μg/mL, AA 5 mM, 30 min): 0.0
Log 10 (CFU + 1) Survivors ([5]; MPO 25 μg/mL, AA 5 mM, 60 min): 0.0
Log 10 (CFU + 1) Survivors ([5]; MPO 25 μg/mL, AA […], 30 min): 0.0
Log 10 (CFU + 1) Survivors ([5]; MPO 25 μg/mL, AA […], 60 min): 0.0
Log 10 (CFU + 1) Survivors ([5]; MPO 100 μg/mL, AA 5 mM, 30 min): 0.0
Log 10 (CFU + 1) Survivors ([5]; MPO 100 μg/mL, AA 5 mM, 60 min): 0.0
Log 10 (CFU + 1) Survivors [5, 22]: 0.0
Log 10 (CFU + 1) Survivors [5, 23]: 0.0
Average Viability CFU/ml 60 min [5, 24]: 0 CFU/ml
Log Reduction 60 min [5, 24]: 7.4
Average Viability CFU/ml 50 min [5, 25]: 6000000 CFU/ml
Log Reduction 50 min [5, 25]: 0.7
Average Viability CFU/ml 50 min ([5]; blood): 505000 CFU/ml
Log Reduction 50 min ([5]; blood): 1.7
increased performance over the MPO system without amino acids ([5]; within 30 minutes, MPO 25 μg/mL, GO 8.3 U/mL, blood, 5 μmol/mL): 6.8 logs
kill of S. aureus (in words) ([5]; within 60 minutes, lower concentrations of amino acid and MPO, blood): complete kill

gentamicin
MIC 50% [6]: 4 µg/mL
MIC 90% [6]: 16 µg/mL
MIC Range [7]: 1 to 4 µg/mL
MIC 50% [8]: 8 µg/mL
MIC 90% [8]: >32 µg/mL
MIC 50% [9]: 4 µg/mL
MIC 90% [9]: >32 µg/mL
MIC Range [10]: 2 to 16 µg/mL
MIC 50% [11]: 2 µg/mL
MIC 90% [11]: 8 µg/mL
MIC by the modified method versus published quality control ranges ([12]; E. coli ATCC 25922, inoculum prepared in Diluent solution): within previously published quality control ranges
MIC 50% [12, 26]: 4 µg/mL
MIC 90% [12, 26]: >32 µg/mL
MIC 50% [13]: 2 µg/mL
MIC 90% [13]: 4 µg/mL
MIC 50% [14]: 8 µg/mL
MIC 90% [14]: 8 µg/mL

C/C(=C\C(=O)OCCCCCCCCC(=O)O)C[C@@H]1OC[C@H](C[C@@H]2O[C@H]2[C@@H](C)[C@H](C)O)[C@@H](O)[C@H]1O [mupirocin]
MIC50 [15]: 0.5 µg/mL (≈ 0.999 µM)
MIC90 [15]: 0.5 µg/mL (≈ 0.999 µM)
MIC Range ([15]; range for all strains tested): 0.12 to 2 µg/mL
MIC50 [16, 27]: 0.12 µg/mL (≈ 0.24 µM)
MIC90 [16, 27]: > 32 µg/mL
MIC range, upper end ([16]; clinical isolates): > 32 µg/mL
MIC Range ([17]; Streptococcus Group C, 8 clinical isolates): 0.06 to 0.5 µg/mL
MIC Range ([17]; Streptococcus Group F, 2 clinical isolates): 0.25-0.25 μg/ml
MIC50 [17, 28]: 0.12 µg/mL (≈ 0.24 µM)
MIC90 [17, 28]: 0.12 µg/mL (≈ 0.24 µM)
MIC Range [17, 28]: 0.06 to 0.5 µg/mL
MIC50 [18]: 0.25 µg/mL (≈ 0.499 µM)
MIC90 [18]: 0.25 µg/mL (≈ 0.499 µM)
MIC Range ([18]; range for all strains tested): 0.06 to 0.5 µg/mL
MIC50 [19, 29]: 32 µg/mL (≈ 63.9 µM)
MIC90 [19, 29]: > 32 µg/mL
MIC range, upper end ([19]; clinical isolates): > 32 µg/mL
MIC by the modified method versus published quality control ranges ([20]; S. aureus ATCC 29213, inoculum prepared in Diluent solution): within previously published quality control ranges
MIC50 [20, 30]: 0.06 µg/mL (≈ 0.12 µM)
MIC90 [20, 30]: 0.12 µg/mL (≈ 0.24 µM)
MIC range, upper end ([20]; clinical isolates): > 32 µg/mL
MIC50 [21]: 0.12 µg/mL (≈ 0.24 µM)
MIC90 [21]: 0.25 µg/mL (≈ 0.499 µM)
MIC Range ([21]; range for all strains tested): 0.06 to 0.5 µg/mL

C[C@H](N)C(=O)O [L-Alanine]
log reduction at 5000 µM ([3]; Staphylococcus aureus, 1 h, read-out: Log Reduction 60 min): 0
Average Viability CFU/ml 60 min [3]: 24100000 CFU/ml
CFU survivors [4]: 520000 CFU
log reduction [4]: 1.5 log
Log 10 (CFU + 1) Survivors ([5]; MPO 25 μg/mL, AA 5 mM, 30 min): 6.9
Log 10 (CFU + 1) Survivors ([5]; MPO 25 μg/mL, AA 5 mM, 60 min): 4.1
Log 10 (CFU + 1) Survivors ([5]; MPO 25 μg/mL, AA […], 30 min): 7.0
Log 10 (CFU + 1) Survivors ([5]; MPO 25 μg/mL, AA […], 60 min): 4.7
Log 10 (CFU + 1) Survivors ([5]; MPO 100 μg/mL, AA 5 mM, 30 min): 5.1
Log 10 (CFU + 1) Survivors ([5]; MPO 100 μg/mL, AA 5 mM, 60 min): 0.0
Log 10 (CFU + 1) Survivors [5, 22]: 6.1
Log 10 (CFU + 1) Survivors [5, 23]: 0.0
Average Viability CFU/ml 60 min [5, 31]: 7 CFU/ml
Log 10 (CFU + 1) Survivors 60 min [5, 31]: 0.9
Log Reduction 60 min [5, 31]: 6.5
Average Viability CFU/ml 50 min [5, 32]: 9750000 CFU/ml
Log Reduction 50 min [5, 32]: 0.4
Average Viability CFU/ml 50 min [5, 33]: 2230000 CFU/ml
Log Reduction 50 min [5, 33]: 1.0
Average Viability CFU/ml 50 min [5, 25]: 2215000 CFU/ml
Log Reduction 50 min [5, 25]: 1.1
